Test results: US9670261B2 (Sanofi, priority 2012, dated 2017)
Converted amounts (≈) assume the structure as drawn. *1 amine or outer side, *2 acyl side, *3 side chain or, on linkers, in order; H or OH if unused. Where a SMILES comes first, the peptide text is derived from it. Side-chain parts run from the residue outwards. [ ]: non-standard residue; d: D form. The star is where a group is joined. γGlu = O=C(O)[C@H](CCC(=O)[*:2])N[*:1]; Stearoyl = CCCCCCCCCCCCCCCCCC(=O)*; Palmitoyl = CCCCCCCCCCCCCCCC(=O)*; Aib = CC(C)(N)C(=O)O; GABA = NCCCC(=O)O

Legend:
[1] = Pharmacokinetic testing in mice, s.c.; details: mouse, in vivo, sc, 1 mg/kg
Method: Mice were dosed 1 mg/kg subcutaneously (s.c.). The mice were sacrified and blood samples were collected after 0.25, 0.5, 1, 2, 4, 8, 16 and 24 hours post application. Plasma samples were analyzed after protein precipitation via liquid chromatography mass spectrometry (LC/MS). PK parameters and half-life were calculated using WinonLin Version 5.2.1 (non-compartment model).

[2] = Solubility testing in buffer (HPLC-UV)
female NMRI-mice [3] = test: Automated assessment of 22-hours feed intake in mice; format: in vivo; details: 0.1 mg/kg s.c.
Method: Female NMRI-mice of a body weight between 20 and 30 g were used. Mice were adapted to housing conditions for at least one week and for at least one day single-caged in the assessment equipment, when basal data were recorded simultaneously. On the study day, test product was administered subcutaneously close to the lights-off phase (12 h lights off) and assessment of feed consumption was directly started afterwards. Assessment included continued monitoring over 22 hours, while data are processed as mean over every 30 min. Repetition of this procedure over several days was possible. Restriction of assessment to 22 hours was for practical reasons to allow for reweighing of animals, refilling of feed and water and drug administration between procedures. Results could be assessed as cumulated data over 22 hours or differentiated to 30 min intervals. […] Statistical analyses were performed with Everstat 6.0 by two-way ANOVA on repeated measures and Dunnett's post-hoc analyses. Differences were considered statistically significant at the p<0.05 level. […] Lights-off phase (dark phase) started 4 hours later. […].

female NMRI-mice [4] = test: Gastric emptying and intestinal passage in mice; format: in vivo; details: 10 μg/kg s.c., versus vehicle control
Method: Female NMRI-mice of a body weight between 20 and 30 g were used. Mice were adapted to housing conditions for at least one week. Mice were overnight fasted, while water remained available all the time. On the study day, mice were weighed, single-caged and allowed access to 500 mg of feed for 30 min, while water was removed. At the end of the […], remaining feed was removed and weighed. Then, the test compound/reference compound or its vehicle in the control group was administered subcutaneously. 60 min later, to allow the compound to reach relevant plasma exposure, a coloured, non-caloric bolus was instilled via gavage into the stomach. After another 30 min, the animals were sacrificed and the stomach and the small intestine prepared. The filled stomach was weighed, emptied, carefully cleaned and dried and reweighed. The stomach content, calculated as weight of filled subtracted by the weight of emptied stomach, indicated the degree of gastric emptying. The small intestine was straightened without force and measured in length. Then the distance from the gastric beginning of the gut to the tip of the farthest traveled intestinal content bolus was measured. The intestinal passage was given as ratio in percent of the latter distance and the total length of the small intestine. […] Statistical analyses were performed with Everstat 6.0 by 1-way-ANOVA, followed by Dunnett's as post-hoc test. Dunnett's Test was applied to compare versus vehicle control. Differences were considered statistically significant at the p<0.05 level.

[5] = Chemical stability in solution, 7 days at 25° C. (% remaining peptide); details: % remaining peptide after 7 days at 25° C.
Method: After that time course, the sample was centrifuged for 20 min at 4000 rpm and the supernatant was analysed with HPLC-UV. For determination of the amount of the remaining peptide, the peak areas of the target compound at t0 and t7 were compared, resulting in “% remaining peptide”, following the equation % remaining peptide=[(peak area peptide t7)×100]/peak area peptide t0.
The chemical stability is expressed as “% remaining peptide”.

[6] = tested on: female leptin-receptor deficient diabetic db/db mice; test: Blood glucose and HbA1c in leptin-receptor deficient diabetic db/db mice (method 3); format: in vivo; details: single 100 μg/kg s.c., fed db/db mice
Source text: Female BKS.Cg-m+/+Leprdb/J (db/db) and BKS.Cg-m+/+Leprdb/+(lean control) mice were obtained from Charles River Laboratories, Germany, at an age of 9-10 weeks. The animals were housed in groups in a specific pathogen-free barrier facility on a 12-h light/dark cycle with free access to water and rodent-standard chow. After 1 week of acclimatization, blood samples were drawn from the tail without anaesthesia and blood glucose (method: d-glucose hexokinase, hemolysate, AU640 Beckman Coulter) and HbA1c level (method: hemolysate, Cobas6000 c501, Roche Diagnostics, Germany) were determined. […] The volume of administration was 5 mL/kg. The animals had access to water and chow during the experiment, food consumption was determined at all time points of blood sampling. […] Blood sampling was performed by tail incision without anaesthesia. […] At the end of the study, blood samples (tail, no anaesthesia) were analyzed for glucose and HbA1c. […] Statistical analyses were performed with Everstat 6.0 by repeated measures two-way ANOVA and Dunnett's post-hoc analyses. Differences versus vehicle-treated db/db control mice were considered statistically significant at the p<0.05 level. […] At predefined time points, more blood samples were taken to measure blood glucose and generate the blood glucose profile over 24 h. […] Blood glucose and HbA1c were determined before start of treatment and at the end of the study after 4 weeks of treatment. […] Before treatment started, no significant differences in blood glucose levels could be detected between db/db groups, only the lean control animals had significant lower glucose levels. During the 4 weeks of treatment, glucose levels increased in the vehicle-treated db/db control group, indicating a worsening of the diabetic situation.

human GLP-1 receptor = biological target: T1, human GLP-1 receptor (Homo sapiens, UniProt P43220); test: cAMP response (HTRF) of HEK-293 cells stably expressing human GLP-1 receptor; format: cell-based; details: Table 7; cAMP formation; read-out: EC50 hGLP-1 R
T1 construct: expressed in transfected cells
Summary of the method: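 After near-confluent growth in DMEM with 10% FBS, cells were washed in Ca/Mg-free PBS, lifted with accutase and diluted to 400000 cells/ml in IBMX (2 mM)-containing HEPES-buffered HBSS with 0.1% BSA. Compounds were applied for 30 minutes at room temperature before homogeneous time-resolved fluorescence quantitation of cAMP.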

human GIP receptor = biological target: T2, human GIP receptor (Homo sapiens, UniProt P48546); test: cAMP response (HTRF) of HEK-293 cells stably expressing human GIP receptor; format: cell-based; details: Table 7; cAMP formation; read-out: EC50 hGIP R
T2 construct: expressed in transfected cells
T2 sequence (P48546 22-466): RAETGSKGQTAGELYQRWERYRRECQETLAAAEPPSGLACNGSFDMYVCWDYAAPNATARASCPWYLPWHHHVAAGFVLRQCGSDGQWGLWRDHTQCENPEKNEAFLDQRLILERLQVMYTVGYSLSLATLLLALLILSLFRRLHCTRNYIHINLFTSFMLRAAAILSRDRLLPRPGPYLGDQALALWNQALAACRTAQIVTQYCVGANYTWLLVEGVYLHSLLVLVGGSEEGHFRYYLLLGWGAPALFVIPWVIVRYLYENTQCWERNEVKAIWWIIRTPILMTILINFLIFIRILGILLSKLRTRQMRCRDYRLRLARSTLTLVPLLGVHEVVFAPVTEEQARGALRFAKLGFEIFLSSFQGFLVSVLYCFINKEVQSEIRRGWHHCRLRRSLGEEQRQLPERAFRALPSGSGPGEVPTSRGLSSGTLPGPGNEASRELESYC
Method: cAMP content of cells was determined using a kit from Cisbio Corp. (cat. no. 62AM4PEC) based on HTRF (Homogenous Time Resolved Fluorescence). For preparation, cells were split into T175 culture flasks and grown overnight to near confluency in medium (DMEM/10% FBS). Medium was then removed and cells washed with PBS lacking calcium and magnesium, followed by proteinase treatment with accutase (Sigma-Aldrich cat. no. A6964). Detached cells were washed and resuspended in assay buffer (1×HBSS; 20 mM HEPES, 0.1% BSA, 2 mM IBMX) and cellular density determined. They were then diluted to 400000 cells/ml and 25 μl-aliquots dispensed into the wells of 96-well plates. For measurement, 25 μl of test compound in assay buffer was added to the wells, followed by incubation for 30 minutes at room temperature.

T1 sequence (P43220 24-463): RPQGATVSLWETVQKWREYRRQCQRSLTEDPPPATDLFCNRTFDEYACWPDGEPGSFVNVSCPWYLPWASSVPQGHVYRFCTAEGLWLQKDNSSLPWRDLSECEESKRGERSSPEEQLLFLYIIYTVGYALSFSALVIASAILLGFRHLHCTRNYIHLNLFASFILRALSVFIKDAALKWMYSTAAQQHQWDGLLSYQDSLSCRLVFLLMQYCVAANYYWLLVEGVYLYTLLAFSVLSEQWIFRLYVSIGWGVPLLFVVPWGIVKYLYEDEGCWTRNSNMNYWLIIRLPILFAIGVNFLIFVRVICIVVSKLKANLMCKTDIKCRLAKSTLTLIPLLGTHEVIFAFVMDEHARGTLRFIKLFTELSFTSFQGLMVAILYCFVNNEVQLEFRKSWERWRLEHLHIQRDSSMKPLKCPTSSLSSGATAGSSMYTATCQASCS

| Compound | Cmax [1] [ng/mL] | half-life [1] [h] | solubility at 2 h ([2]; pH 4.5) [µg/mL] | solubility at 2 h ([2]; pH 7.4) [µg/mL] | reduction of feed intake after 22 hours (female NMRI-mice [3]) [%] | increase of remaining gastric contents (female NMRI-mice [4]) [%] | reduction of intestinal passage (female NMRI-mice [4]) [%] | Stability (pH 4.5) [5] [%] | Stability (pH 7.4) [5] [%] | blood glucose compared to db/db control mice, 24 h profile [6] | solubility at 2 h ([2]; buffer, pH 4.5) [µg/mL] | solubility at 2 h ([2]; buffer, pH 7.4) [µg/mL] | EC50 (human GLP-1 receptor) [pM] | EC50 (human GIP receptor) [pM] |
| --- | --- | --- | --- | --- | --- | --- | --- | --- | --- | --- | --- | --- | --- | --- |
| CCCCCCCCCCCCCCCC(=O)N[C@@H](CCC(=O)NCCCC[C@H](NC(=O)[C@H](CCC(N)=O)NC(=O)[C@@H](NC(=O)[C@H](CO)NC(=O)[C@H](CC(C)C)NC(=O)[C@H](CC(=O)O)NC(=O)[C@H](CO)NC(=O)[C@@H](NC(=O)[C@H](Cc1ccccc1)NC(=O)[C@@H](NC(=O)CNC(=O)[C@H](CCC(N)=O)NC(=O)C(C)(C)NC(=O)[C@@H](N)Cc1ccc(O)cc1)[C@@H](C)O)[C@@H](C)O)[C@@H](C)CC)C(=O)N[C@@H](CC(=O)O)C(=O)N[C@@H](CO)C(=O)N[C@@H](CCCNC(=N)N)C(=O)N[C@@H](C)C(=O)N[C@@H](C)C(=O)N[C@@H](CCC(N)=O)C(=O)N[C@@H](CC(=O)O)C(=O)N[C@@H](Cc1ccccc1)C(=O)N[C@H](C(=O)N[C@@H](CCC(=O)O)C(=O)N[C@@H](Cc1c[nH]c2ccccc12)C(=O)N[C@@H](CC(C)C)C(=O)N[C@@H](CCCCN)C(=O)N[C@@H](CC(N)=O)C(=O)NCC(=O)NCC(=O)N1CCC[C@H]1C(=O)N[C@@H](CO)C(=O)N[C@@H](CO)C(=O)NCC(=O)N[C@@H](C)C(=O)N1CCC[C@H]1C(=O)N1CCC[C@H]1C(=O)N1CCC[C@H]1C(=O)N[C@@H](CO)C(N)=O)[C@@H](C)CC)C(=O)O [SEQ ID NO: 13, Y-Aib-Q-G-T-F-T-S-D-L-S-I-Q-K(γE-x53)-DSRAAQDFIEWLKNGGPSSGAPPPS-NH2] (H-Y[Aib]QGTFTSDLSIQK([γGlu-Palmitoyl])DSRAAQDFIEWLKNGGPSSGAPPPS-NH2) | 3790 | 3.1 | 268 (≈ 59.4 µM) | > 1000 | 93 | 40 | 60 | 86.8 | 95.9 | significant decrease in blood glucose | – | – | – | – |
| CCCCCCCCCCCCCCCCCC(=O)NCCCC(=O)NCCCC[C@H](NC(=O)[C@H](CCC(N)=O)NC(=O)[C@@H](NC(=O)[C@H](CO)NC(=O)[C@H](CC(C)C)NC(=O)[C@H](CC(=O)O)NC(=O)[C@H](CO)NC(=O)[C@@H](NC(=O)[C@H](Cc1ccccc1)NC(=O)[C@@H](NC(=O)CNC(=O)[C@H](CCC(=O)O)NC(=O)C(C)(C)NC(=O)[C@@H](N)Cc1ccc(O)cc1)[C@@H](C)O)[C@@H](C)O)[C@@H](C)CC)C(=O)N[C@@H](CCC(=O)O)C(=O)N[C@@H](CCCCN)C(=O)N[C@@H](CCCNC(=N)N)C(=O)N[C@@H](C)C(=O)N[C@@H](C)C(=O)NC(C)(C)C(=O)N[C@@H](CCC(=O)O)C(=O)N[C@@H](Cc1ccccc1)C(=O)N[C@H](C(=O)N[C@@H](CCC(=O)O)C(=O)N[C@@H](Cc1c[nH]c2ccccc12)C(=O)N[C@@H](CC(C)C)C(=O)N[C@@H](CCCCN)C(=O)N[C@@H](CC(N)=O)C(=O)N[C@H](C(=O)NCC(=O)N1CCC[C@H]1C(=O)N[C@@H](CO)C(=O)N[C@@H](CO)C(=O)NCC(=O)N[C@@H](C)C(=O)N1CCC[C@H]1C(=O)N1CCC[C@H]1C(=O)N1CCC[C@H]1C(=O)N[C@@H](CO)C(N)=O)[C@@H](C)O)[C@@H](C)CC [SEQ ID NO: 17, Y-Aib-E-G-T-F-T-S-D-L-S-I-Q-K(GABA-x70)-E-K-R-A-A-Aib-E-F-I-E-W-L-K-N-T-G-P-S-S-G-A-P-P-P-S-NH2] (H-Y[Aib]EGTFTSDLSIQK([GABA-Stearoyl])EKRAA[Aib]EFIEWLKNTGPSSGAPPPS-NH2) | – | – | – | – | – | – | – | 100.0 | 100.0 | – | 970 (≈ 213 µM) | > 1000 | 8.7 | 9.6 |
